For experiment [1], the target named is Epidermal growth factor receptor (Homo sapiens) (UniProt P00533). Nature of the experiment: Induction of EGFR degradation in human MDA-MB-231 cells assessed as suppression of EGFR expression at 0.05 to 0.6 uM by Western blot analysis. It counts as cell-based.
Experiment [2] concerns the target Hepatocyte growth factor receptor (Homo sapiens) (UniProt P08581). Put plainly: Induction of c-MET degradation in human MDA-MB-231 cells assessed as suppression of c-MET expression at 0.05 to 0.6 uM by Western blot analysis. It counts as cell-based.

Active and inactive are the calls of the source. The calls are words filed in the database; no cut-off is given here.

These results are taken from ChEMBL document CHEMBL4342507, “Targeting YAP Degradation by a Novel 1,2,4-Oxadiazole Derivative via Restoration of the Function of the Hippo Pathway” (ACS Med Chem Lett, 2020).

Chain of Hepatocyte growth factor receptor (Homo sapiens) (P08581 whole entry): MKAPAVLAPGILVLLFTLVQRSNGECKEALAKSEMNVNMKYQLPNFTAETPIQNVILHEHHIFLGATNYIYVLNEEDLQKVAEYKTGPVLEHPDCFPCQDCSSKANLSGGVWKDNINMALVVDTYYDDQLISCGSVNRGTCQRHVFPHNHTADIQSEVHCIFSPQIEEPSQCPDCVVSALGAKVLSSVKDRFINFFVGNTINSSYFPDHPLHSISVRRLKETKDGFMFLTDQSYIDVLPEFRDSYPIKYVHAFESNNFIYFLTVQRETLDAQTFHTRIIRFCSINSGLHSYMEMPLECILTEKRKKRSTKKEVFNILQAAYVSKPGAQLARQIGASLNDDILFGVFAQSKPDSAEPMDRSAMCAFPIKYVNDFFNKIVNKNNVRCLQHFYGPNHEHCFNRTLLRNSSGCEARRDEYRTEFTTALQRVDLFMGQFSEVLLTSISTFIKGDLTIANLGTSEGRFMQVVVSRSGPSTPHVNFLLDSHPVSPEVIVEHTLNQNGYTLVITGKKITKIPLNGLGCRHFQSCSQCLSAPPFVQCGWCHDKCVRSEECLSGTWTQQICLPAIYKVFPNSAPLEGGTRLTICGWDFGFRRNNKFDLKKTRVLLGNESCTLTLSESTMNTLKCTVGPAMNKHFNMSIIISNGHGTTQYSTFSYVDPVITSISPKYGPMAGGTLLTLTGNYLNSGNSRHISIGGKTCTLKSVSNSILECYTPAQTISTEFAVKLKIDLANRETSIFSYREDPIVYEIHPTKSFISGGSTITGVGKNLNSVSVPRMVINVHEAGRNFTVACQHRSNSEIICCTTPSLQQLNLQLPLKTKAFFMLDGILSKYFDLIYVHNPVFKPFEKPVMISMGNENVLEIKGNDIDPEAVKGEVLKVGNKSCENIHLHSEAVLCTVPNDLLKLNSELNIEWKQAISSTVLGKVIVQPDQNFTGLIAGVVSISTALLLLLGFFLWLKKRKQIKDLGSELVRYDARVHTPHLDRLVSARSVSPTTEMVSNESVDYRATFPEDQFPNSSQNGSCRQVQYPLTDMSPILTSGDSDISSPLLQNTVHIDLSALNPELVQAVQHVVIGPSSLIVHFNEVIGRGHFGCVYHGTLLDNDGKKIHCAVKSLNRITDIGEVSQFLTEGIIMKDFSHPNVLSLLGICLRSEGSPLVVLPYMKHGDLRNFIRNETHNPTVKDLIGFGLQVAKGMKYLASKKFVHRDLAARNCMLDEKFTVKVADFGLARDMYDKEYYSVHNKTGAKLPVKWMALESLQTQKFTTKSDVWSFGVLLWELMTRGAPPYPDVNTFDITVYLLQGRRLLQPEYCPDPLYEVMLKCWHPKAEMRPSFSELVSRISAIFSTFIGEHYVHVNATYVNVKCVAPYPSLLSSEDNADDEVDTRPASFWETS
Chain of Epidermal growth factor receptor (Homo sapiens) (P00533 whole entry): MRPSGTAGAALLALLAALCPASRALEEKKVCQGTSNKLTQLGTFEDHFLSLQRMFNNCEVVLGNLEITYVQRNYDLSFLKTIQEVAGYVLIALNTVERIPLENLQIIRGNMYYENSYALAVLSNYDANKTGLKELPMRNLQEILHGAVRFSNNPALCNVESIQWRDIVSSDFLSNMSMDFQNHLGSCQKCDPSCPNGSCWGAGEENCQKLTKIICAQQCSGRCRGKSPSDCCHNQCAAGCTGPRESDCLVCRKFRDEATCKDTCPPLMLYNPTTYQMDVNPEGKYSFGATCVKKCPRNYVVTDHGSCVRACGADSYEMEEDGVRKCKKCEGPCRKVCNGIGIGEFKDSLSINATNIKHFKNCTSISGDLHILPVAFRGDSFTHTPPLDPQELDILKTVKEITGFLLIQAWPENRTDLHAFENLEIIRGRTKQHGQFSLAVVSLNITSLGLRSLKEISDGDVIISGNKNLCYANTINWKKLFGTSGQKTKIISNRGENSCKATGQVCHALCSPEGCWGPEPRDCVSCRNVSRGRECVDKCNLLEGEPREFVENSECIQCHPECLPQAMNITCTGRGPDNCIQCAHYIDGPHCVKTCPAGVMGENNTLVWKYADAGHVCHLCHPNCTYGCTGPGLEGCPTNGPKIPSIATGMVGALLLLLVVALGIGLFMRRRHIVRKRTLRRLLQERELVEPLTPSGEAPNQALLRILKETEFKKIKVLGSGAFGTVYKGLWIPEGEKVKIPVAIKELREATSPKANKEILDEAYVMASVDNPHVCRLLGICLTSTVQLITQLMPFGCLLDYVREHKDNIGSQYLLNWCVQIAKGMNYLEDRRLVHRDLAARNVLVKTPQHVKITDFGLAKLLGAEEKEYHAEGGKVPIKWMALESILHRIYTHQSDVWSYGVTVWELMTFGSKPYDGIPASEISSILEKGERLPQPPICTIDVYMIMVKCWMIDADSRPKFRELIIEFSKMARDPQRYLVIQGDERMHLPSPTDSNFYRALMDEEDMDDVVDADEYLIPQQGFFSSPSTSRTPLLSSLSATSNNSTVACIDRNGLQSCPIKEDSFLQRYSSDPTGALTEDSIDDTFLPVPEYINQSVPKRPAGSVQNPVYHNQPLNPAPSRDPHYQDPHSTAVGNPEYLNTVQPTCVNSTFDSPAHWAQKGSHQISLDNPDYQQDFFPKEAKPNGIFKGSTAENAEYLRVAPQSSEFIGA

With `O=C(Nc1cccc(-c2nc(-c3ccc(NC(=O)c4cccnc4)cc3Cl)no2)c1)Nc1ccc(NC(=O)C2CC2)c(C(F)(F)F)c1`, the outcome in experiment [1] and in experiment [2] was Active.
